Experiment [1] has as its target T1, Adenosine A2A receptor (Homo sapiens, UniProt P29274). Put plainly: Adenosine A2A receptor competitive binding assay (Tag-lite HTRF). As to conditions: Tag-lite adenosine A2A receptor ligand binding, 2 h room temperature; values separated by / are repeat determinations. The protocol:
Adenosine A2A Receptor Competitive Binding Assay
The Tag-lite adenosine A2A receptor ligand binding assay is a homogeneous alternative to radioligand binding assay and developed by Cisbio (Bedford, Mass.). We carried out this assay following Cisbio's instructions with minor modification. Pre-transfected, fluorescent donor-labelled cells (Cisbio Cat#: C1TT1A2A, 200 testes) was stored at −80° C. and thawed right before use. Cells were washed once with 5 ml TLB and gently resuspended in 2 ml TLB. 4 μl suspended cells was dispensed into each well of white low-volume 384-well plate (Greiner Bio-One). Serial dilutions of compounds were prepared in Tag-lite buffer (TLB, Cisbio Cat #: LABMED) to a DMSO concentration of 0.6%. After adding 4 μl of compound dilutions to each well, 4 μl60 nM Adenosine A2A receptor red antagonist fluorescent ligand (Cisbio Cat #: L0058RED) was dispensed to each well. The 384-well assay plate was centrifuged briefly and incubated at room temperature for 2 h. HTRF signals were measured using CIARIOstar plate reader (BMG Labtech).
Background: TR-FRET usually uses a lanthanide donor and a delayed reading to cut background.

For experiment [2], the target named is T1, Adenosine A2A receptor. Nature of the experiment: cAMP assay in 293A cells stably expressing the adenosine A2A receptor (CGS21680 stimulation, HTRF). It counts as cell-based. As to conditions: 293A cells stably expressing A2A receptor; 0.1% BSA; 1 uM CGS21680 stimulation; replicate values separated by /; read-out: cAMP (nM) 0.1% BSA, 1 uM CGS. Also on record: expressed in transfected cells; host or cells: 293A cells (Invitrogen, Cat# R705-07) infected with A2A-expressing lentivirus (custom packaged by Biosettia), puromycin selected. (Changes in cAMP serve as a functional read-out for many G protein-coupled receptors.)

pIC50: −log10 of the molar value. Values joined by “and” are separate entries in the source; they are usually repeats but may differ in a detail not shown here. Equal entries are not always repeated.

T1 sequence (P29274 whole entry): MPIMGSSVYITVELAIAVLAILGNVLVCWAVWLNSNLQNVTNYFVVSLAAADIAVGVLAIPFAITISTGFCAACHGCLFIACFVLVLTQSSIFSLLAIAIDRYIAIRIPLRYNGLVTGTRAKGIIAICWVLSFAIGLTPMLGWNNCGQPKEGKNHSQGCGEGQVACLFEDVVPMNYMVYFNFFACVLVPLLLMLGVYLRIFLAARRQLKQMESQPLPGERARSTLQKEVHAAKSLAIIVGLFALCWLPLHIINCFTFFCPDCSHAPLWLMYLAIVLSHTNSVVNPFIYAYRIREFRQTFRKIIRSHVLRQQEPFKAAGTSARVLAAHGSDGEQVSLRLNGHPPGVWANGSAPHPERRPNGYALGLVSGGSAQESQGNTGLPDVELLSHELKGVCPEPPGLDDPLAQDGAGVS

For orientation: pIC50 means the IC50 on a negative log10 scale, so that one unit is a factor of ten. Higher therefore signals a low IC50. `CCN(CC)C(=O)CCc1nc(N)nc(-c2ccccc2)c1-c1cc(C)nc(C(F)(F)F)c1` [Example 18, 3-(2-amino-5-(2-methyl-6-(trifluoromethyl)pyridin-4-yl)-6-phenylpyrimidin-4-yl)-N,N-diethylpropanamide]: the pIC50 in experiment [1] was 6.36.

The molecule `Cc1cc(-c2c(CO)nc(N)nc2-c2ccccc2)cc(C(F)(F)F)n1` [Example 19, (2-amino-5-(2-methyl-6-(trifluoromethyl)pyridin-4-yl)-6-phenylpyrimidin-4-yl)methanol] showed a pIC50 in experiment [1] of 7.28.

Take `CC(=O)N1CCN(c2ccc(CCOc3nc(N)nc(-c4ccccc4)c3-c3cc(C)nc(C(F)(F)F)c3)cc2)CC1` [Example 20, 1-(4-(4-(2-((2-amino-5-(2-methyl-6-(trifluoromethyl)pyridin-4-yl)-6-phenylpyrimidin-4-yl)oxy)ethyl)phenyl)piperazin-1-yl)ethan-1-one]: in experiment [1], the negative logarithm of the IC50 (pIC50) was 7.58.

As to `CCN(CC)C(=O)OCc1nc(N)nc(-c2ccccc2)c1-c1cc(C)nc(C(F)(F)F)c1` [Example 21, (2-amino-5-(2-methyl-6-(trifluoromethyl)pyridin-4-yl)-6-phenylpyrimidin-4-yl)methyl diethylcarbamate], in experiment [1], the pIC50 is 6.96. This pIC50 lies 0.62 log units lower than the previous one.

`CNCc1nc(N)nc(-c2ccccc2)c1-c1cc(C)nc(C(F)(F)F)c1` [Example 22, 5-(2-methyl-6-(trifluoromethyl)pyridin-4-yl)-4-((methylamino)methyl)-6-phenylpyrimidin-2-amine] gave a pIC50 in experiment [1] of 5.75.

For the molecule `Cc1cc(-c2c(CN(C)C)nc(N)nc2-c2ccccc2)cc(C(F)(F)F)n1` [Example 23, 4-((dimethylamino)methyl)-5-(2-methyl-6-(trifluoromethyl)pyridin-4-yl)-6-phenylpyrimidin-2-amine], in experiment [1], the negative-log IC50 (pIC50) is 5.75.

In experiment [1], `Cc1cc(-c2c(CNCC(F)(F)F)nc(N)nc2-c2ccccc2)cc(C(F)(F)F)n1` [Example 24, 5-(2-methyl-6-(trifluoromethyl)pyridin-4-yl)-4-phenyl-6-(((2,2,2-trifluoroethyl)amino)methyl)pyrimidin-2-amine] gave a negative-log IC50 (pIC50) of 6.93.

With `CC(=O)N1CCC(Oc2ccc(CCOc3nc(N)nc(-c4ccccc4)c3-c3cc(C)nc(C(F)(F)F)c3)cc2)C1` (stereo not drawn) [Example 25, 1-(3-(4-(2-((2-amino-5-(2-methyl-6-(trifluoromethyl)pyridin-4-yl)-6-phenylpyrimidin-4-yl)oxy)ethyl)phenoxy)pyrrolidin-1-yl)ethan-1-one], the negative-log IC50 (pIC50) in experiment [1] was 7.49.

As to `Cc1cc(-c2c(OCCc3ccc(N4CCC(=O)CC4)cc3)nc(N)nc2-c2ccccc2)cc(C(F)(F)F)n1` [Example 26, 1-(4-(2-((2-amino-5-(2-methyl-6-(trifluoromethyl)pyridin-4-yl)-6-phenylpyrimidin-4-yl)oxy)ethyl)phenyl)piperidin-4-one], the negative-log IC50 (pIC50) in experiment [1] is 7.37 and 7.57.

In the case of `CCN(CC)C(=O)COc1nc(N)nc(-c2ccc(F)cc2)c1-c1cc(C)nc(C(F)(F)F)c1` [Example 27, 2-[[2-amino-6-(4-fluorophenyl)-5-[2-methyl-6-(trifluoromethyl)pyridin-4-yl]pyrimidin-4-yl]oxy]-N,N-diethylacetamide], the negative-log IC50 (pIC50) in experiment [1] is 7.80.

For `CCN(CC)C(=O)CNc1nc(N)nc(-c2ccccc2)c1-c1cc(C)nc(C(F)(F)F)c1` [Example 30, 2-((2-amino-5-(2-methyl-6-(trifluoromethyl)pyridin-4-yl)-6-phenylpyrimidin-4-yl)amino)-N,N-diethylacetamide], the pIC50 in experiment [1] is 8.00. Against the preceding molecule, the pIC50 is 0.20 log units higher.

The molecule `CC(=O)N1CCN(c2ccc(CCOc3nc(N)nc(-c4ccc(F)cc4)c3-c3cc(C)nc(C(F)F)c3)cc2)CC1` [Example 31, 1-(4-[4-[2-([2-amino-5-[2-(difluoromethyl)-6-methylpyridin-4-yl]-6-(4-fluorophenyl)pyrimidin-4-yl]oxy)ethyl]phenyl]piperazin-1-yl)ethan-1-one] had a pIC50 in experiment [1] of 8.08. This pIC50 and that of the molecule before are within 0.2 log units of each other.

In experiment [1], `Cc1cc(-c2c(OC3CCOCC3)nc(N)nc2-c2ccc(F)cc2)cc(C(F)F)n1` [Example 33, 5-(2-(difluoromethyl)-6-methylpyridin-4-yl)-4-(4-fluorophenyl)-6-((tetrahydro-2H-pyran-4-yl)oxy)pyrimidin-2-amine] gave a pIC50 of 7.18.

The molecule `Cc1cc(-c2c(OC3COC3)nc(N)nc2-c2ccc(F)cc2)cc(C(F)F)n1` [Example 34, 5-(2-(difluoromethyl)-6-methylpyridin-4-yl)-4-(4-fluorophenyl)-6-(oxetan-3-yloxy)pyrimidin-2-amine] gave a pIC50 in experiment [1] of 7.34.

Consider `Cc1cc(-c2c(OCCN3CCN(C)CC3)nc(N)nc2-c2ccc(F)cc2)cc(C(F)F)n1` [Example 35, 5-(2-(difluoromethyl)-6-methylpyridin-4-yl)-4-(4-fluorophenyl)-6-(2-(4-methylpiperazin-1-yl)ethoxy)pyrimidin-2-amine], for which the negative-log IC50 (pIC50) in experiment [1] is 6.90.

Consider `Cc1cc(-c2c(OCCN3CCOCC3)nc(N)nc2-c2ccc(F)cc2)cc(C(F)F)n1` [Example 36, 5-(2-(difluoromethyl)-6-methylpyridin-4-yl)-4-(4-fluorophenyl)-6-(2-morpholinoethoxy)pyrimidin-2-amine], for which, in experiment [1], the negative logarithm of the IC50 (pIC50) is 7.94.

`Cc1cc(-c2c(OCC3COC3)nc(N)nc2-c2ccc(F)cc2)cc(C(F)F)n1` [Example 37, 5-(2-(difluoromethyl)-6-methylpyridin-4-yl)-4-(4-fluorophenyl)-6-(oxetan-3-ylmethoxy)pyrimidin-2-amine] showed a pIC50 in experiment [1] of 7.99.

As for `CCN(CC)C(=O)CN(C)c1nc(N)nc(-c2ccccc2)c1-c1cc(C)nc(C(F)(F)F)c1` [Example 38, 2-((2-amino-5-(2-methyl-6-(trifluoromethyl)pyridin-4-yl)-6-phenylpyrimidin-4-yl)(methyl)amino)-N,N-diethylacetamide], the pIC50 in experiment [1] was 6.09.

On to `Cc1cc(-c2c(OCC(=O)NC3CCOCC3)nc(N)nc2-c2ccc(F)cc2)cc(C(F)F)n1` [Example 40, 2-((2-amino-5-(2-(difluoromethyl)-6-methylpyridin-4-yl)-6-(4-fluorophenyl)pyrimidin-4-yl)oxy)-N-(tetrahydro-2H-pyran-4-yl)acetamide], for which the negative-log IC50 (pIC50) in experiment [1] was 6.53.

In turn, `Cc1cc(-c2c(OCC(=O)NC3CC3)nc(N)nc2-c2ccc(F)cc2)cc(C(F)F)n1` [Example 42, 2-((2-amino-5-(2-(difluoromethyl)-6-methylpyridin-4-yl)-6-(4-fluorophenyl)pyrimidin-4-yl)oxy)-N-cyclopropylacetamide] gave a negative logarithm of the IC50 (pIC50) in experiment [1] of 8.28.

On to `Cc1cc(-c2c(OCc3nccc4nn(C)cc34)nc(N)nc2-c2ccc(F)cc2)cc(C(F)F)n1` [Example 430, 5-(2-(difluoromethyl)-6-methylpyridin-4-yl)-4-(4-fluorophenyl)-6-((2-methyl-2H-pyrazolo[4,3-c]pyridin-4-yl)methoxy)pyrimidin-2-amine], for which the IC50 in experiment [2] turned out to be 2460 nM.

As to `Cc1cc(-c2c(OCc3cccc(C(O)(CCO)CCO)n3)nc(N)nc2-c2ccc(F)cc2)cc(C(F)F)n1` [Example 432, 3-(6-(((2-amino-5-(2-(difluoromethyl)-6-methylpyridin-4-yl)-6-(4-fluorophenyl)pyrimidin-4-yl)oxy)methyl)pyridin-2-yl)pentane-1,3,5-triol], in experiment [2], the IC50 came to 1260 nM.

For `Cc1cc(-c2c(OCc3cc(C#N)cc(C(C)(C)O)n3)nc(N)nc2-c2ccc(F)cc2)cc(C(F)F)n1` [Example 435, 2-(((2-amino-5-(2-(difluoromethyl)-6-methylpyridin-4-yl)-6-(4-fluorophenyl)pyrimidin-4-yl)oxy)methyl)-6-(2-hydroxypropan-2-yl)isonicotinonitrile], in experiment [2], the IC50 came to 506 nM.

Consider `Cc1cc(-c2c(OCc3cccc(CN(CC(=O)N(C)C)CC(=O)N(C)C)n3)nc(N)nc2-c2ccc(F)cc2)cc(C(F)F)n1` [Example 436, 2,2′-(((6-(((2-amino-5-(2-(difluoromethyl)-6-methylpyridin-4-yl)-6-(4-fluorophenyl)pyrimidin-4-yl)oxy)methyl)pyridin-2-yl)methyl)azanediyl)bis(N, N-dimethylacetamide)], for which, in experiment [2], the IC50 is 894 nM and 530 nM.

On to `Cc1cc(-c2c(OCc3nc(C(C)(C)O)ccc3C(C)(C)O)nc(N)nc2-c2ccc(F)cc2)cc(C(F)F)n1` [Example 438, 2,2-(6-(((2-amino-5-(2-(difluoromethyl)-6-methylpyridin-4-yl)-6-(4-fluorophenyl)pyrimidin-4-yl)oxy)methyl)pyridine-2,5-diyl)bis(propan-2-ol)], for which, in experiment [2], the IC50 is 3180 nM.

For `Cc1cc(-c2c(OCc3cc(-c4nn[nH]n4)cc(C(C)(C)O)n3)nc(N)nc2-c2ccc(F)cc2)cc(C(F)F)n1` [Example 441, 2-(6-(((2-amino-5-(2-(difluoromethyl)-6-methylpyridin-4-yl)-6-(4-fluorophenyl)pyrimidin-4-yl)oxy)methyl)-4-(2H-tetrazol-5-yl)pyridin-2-yl)propan-2-ol], the IC50 in experiment [2] is over 3000 nM.

Take `Cc1cc(-c2c(OCc3cc(-c4nnnn4C)cc(C(C)(C)O)n3)nc(N)nc2-c2ccc(F)cc2)cc(C(F)F)n1` [Example 443, 2-(6-(((2-amino-5-(2-(difluoromethyl)-6-methylpyridin-4-yl)-6-(4-fluorophenyl)pyrimidin-4-yl)oxy)methyl)-4-(1-methyl-1H-tetrazol-5-yl)pyridin-2-yl)propan-2-ol]: the IC50 in experiment [2] is 23200 nM.

The values are drawn from patent US20210355104A1, “ADENOSINE RECEPTOR BINDING COMPOUNDS” (Nikang Therapeuticsm Inc., priority 2018, published 2021).
